From PubChem BioAssay (NCI) come the findings set out here.

Test systems include MOLT-4 leukemia; NCI/ADR-RES ovarian; OVCAR-8 ovarian; SF-295 CNS; SK-MEL-2 melanoma; SK-MEL-5 melanoma; SNB-75 CNS; TK-10 renal; U251 CNS; SR leukemia.
What all share (test): NCI-60 cell line screen, 48 h

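96-well plates; 48 h exposure; 5 concentrations. Endpoints by linear interpolation between flanking doses. Not reached: highest tested concentration assigned. GI50: concentration for 50% inhibition of growth. TGI denotes the concentration required for complete inhibition of growth.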 Bounds are passed on as bounds.

Take `COC(=O)C(C)NC(=O)c1ccccc1I(OS(=O)(=O)C(F)(F)F)c1ccccc1` (stereo not given): the GI50 in the assay on MOLT-4 leukemia is 42.3 µM; in the assay on NCI/ADR-RES ovarian, 20.1 µM; with OVCAR-8 ovarian it was 36.3 µM; in the assay on SF-295 CNS, greater than 44.7 µM; with SK-MEL-2 melanoma it was 41.6 µM; in the assay with SK-MEL-5 melanoma it was 13.2 µM. Moreover, the GI50 in the assay on SNB-75 CNS was greater than 49 µM; in the assay with TK-10 renal it was 21 µM; in the assay with U251 CNS it was 18.2 µM. The TGI in the assay on MOLT-4 leukemia was greater than 85.1 µM; in the assay with NCI/ADR-RES ovarian, 42.9 µM; with OVCAR-8 ovarian it was greater than 100 µM; in the assay with SF-295 CNS, greater than 63.6 µM; with SK-MEL-2 melanoma it was greater than 100 µM; in the assay with SK-MEL-5 melanoma, 26.5 µM. Besides, the TGI with SNB-75 CNS is greater than 87.8 µM; in the assay on TK-10 renal, 57.6 µM; in the assay on U251 CNS, 38.5 µM.

As for `C=C1C(=O)O[C@H]2[C@H]1CC/C(COC(=O)NCc1ccc(Cn3c(=O)sn(-c4ccccc4)c3=O)cc1)=C\CC[C@@]1(C)O[C@@H]21`, the GI50 is 2.2 µM in the assay on MOLT-4 leukemia; 19.1 µM in the assay with NCI/ADR-RES ovarian; 2.83 µM in the assay with OVCAR-8 ovarian; 8.52 µM with SF-295 CNS; 2.39 µM with SK-MEL-2 melanoma; 3.24 µM with SK-MEL-5 melanoma. Further, the GI50 with TK-10 renal is 2.21 µM; in the assay with U251 CNS it was 2.37 µM. Besides, the TGI with MOLT-4 leukemia was 7.09 µM; with NCI/ADR-RES ovarian, 63.3 µM; in the assay on OVCAR-8 ovarian, 8.55 µM; with SF-295 CNS, 21.8 µM; in the assay with SK-MEL-2 melanoma it was 6.34 µM; with SK-MEL-5 melanoma it was 11.5 µM. Moreover, the TGI with TK-10 renal was found to be 4.05 µM; in the assay on U251 CNS, 5.28 µM.

For the molecule `C=CC1=C(C)C2=NC1=CC1=NC(=C(CC)/C1=C\O)C=C1N=C3C(=C1C)C(=O)[C@H](C(=O)OC)C3=C1NC(=C2)[C@@H](C)[C@@H]1CCC(=O)O`, the TGI in the assay with MOLT-4 leukemia, in the assay on NCI/ADR-RES ovarian, in the assay with OVCAR-8 ovarian, in the assay with SF-295 CNS, in the assay with SK-MEL-2 melanoma and in the assay on SK-MEL-5 melanoma was greater than 100 µM in each case. The TGI in the assay on SNB-75 CNS, in the assay on TK-10 renal and with U251 CNS was greater than 100 µM each time.

Take `O=[N+]([O-])c1cccc2nccc(NCCCO)c12`: the TGI with MOLT-4 leukemia amounted to 45.1 µM; in the assay on OVCAR-8 ovarian it was 37.3 µM; in the assay with SF-295 CNS it was 32 µM; in the assay on SK-MEL-2 melanoma, 20.9 µM; with SK-MEL-5 melanoma it was 14.4 µM; in the assay on SNB-75 CNS, 62.6 µM. Also, the TGI turned out to be 44.2 µM in the assay on SR leukemia, 52.3 µM with TK-10 renal and 31.3 µM with U251 CNS.

On to `COc1cc(NC(=O)C2=C(N3CCOCC3)/C(=C/c3ccc(Cl)cc3)CC2)cc(OC)c1OC`, for which the GI50 with MOLT-4 leukemia was greater than 100 µM; in the assay with NCI/ADR-RES ovarian, 42.5 µM; with OVCAR-8 ovarian, 19.5 µM; with SF-295 CNS, 7.09 µM; in the assay with SK-MEL-2 melanoma, 66.8 µM; in the assay on SK-MEL-5 melanoma, greater than 100 µM. Further, the GI50 in the assay on SNB-75 CNS is 6.24 µM; with TK-10 renal, 27.9 µM; in the assay on U251 CNS, 16.8 µM. For the same molecule, the TGI was greater than 100 µM in the assay with MOLT-4 leukemia; greater than 100 µM with NCI/ADR-RES ovarian; greater than 100 µM in the assay on OVCAR-8 ovarian; 40.7 µM in the assay with SF-295 CNS; greater than 100 µM in the assay on SK-MEL-2 melanoma; greater than 100 µM with SK-MEL-5 melanoma. The TGI in the assay with SNB-75 CNS was 33.9 µM; in the assay on TK-10 renal, 86.5 µM; in the assay with U251 CNS, 59.7 µM.

On to `COc1cccc2c1n([O-])c1cccc(OC)c1[n+]2=O`, for which the GI50 was 4.97 µM in the assay on MOLT-4 leukemia; 3.81 µM with NCI/ADR-RES ovarian; 4.51 µM in the assay on OVCAR-8 ovarian; 3.03 µM in the assay with SF-295 CNS; 17.8 µM in the assay with SK-MEL-2 melanoma; 3.59 µM in the assay on SK-MEL-5 melanoma. The GI50 is 0.897 µM in the assay on SR leukemia, 24.3 µM in the assay with TK-10 renal and 10.4 µM in the assay with U251 CNS. Also, the TGI in the assay on MOLT-4 leukemia was greater than 100 µM; in the assay on NCI/ADR-RES ovarian, 22.7 µM; with OVCAR-8 ovarian, 35.8 µM; in the assay on SF-295 CNS it was 18.5 µM; in the assay with SK-MEL-2 melanoma, greater than 100 µM; in the assay with SK-MEL-5 melanoma, 14.9 µM. Also, the results for the TGI in the assay with SR leukemia, in the assay with TK-10 renal and with U251 CNS were 9.36 µM, greater than 100 µM and 48.2 µM, respectively.

`NNC(=O)C(=O)N/N=C(\CCC(=O)Nc1ccc(Cl)cc1)Cc1nc2ccccc2s1`: the TGI with MOLT-4 leukemia was greater than 100 µM; in the assay on OVCAR-8 ovarian, greater than 100 µM; with SF-295 CNS, greater than 100 µM; in the assay with SK-MEL-2 melanoma, greater than 100 µM; in the assay on SK-MEL-5 melanoma, 43.6 µM; with SNB-75 CNS, greater than 100 µM. Also, the TGI is 68.5 µM in the assay on SR leukemia, greater than 100 µM in the assay on TK-10 renal and greater than 100 µM in the assay with U251 CNS.

For `OCCN1CCN(CC/C=C2/c3ccccc3Sc3ccc(Cl)cc32)CC1`, the TGI in the assay on MOLT-4 leukemia was 26.8 µM; in the assay with OVCAR-8 ovarian, 29.1 µM; with SF-295 CNS, 32.6 µM; with SK-MEL-2 melanoma, 28.3 µM; with SK-MEL-5 melanoma, 16.5 µM; with SNB-75 CNS, 12.3 µM. Further, the TGI in the assay with SR leukemia was found to be 34.3 µM; in the assay on TK-10 renal it was 28.8 µM; with U251 CNS, 25.6 µM. Also, in the assay on OVCAR-8 ovarian, the GI50 was 15.2 µM.

For `CCC[CH2][Sn]1([CH2]CCC)[O]CC(C)[O]1` (stereo not given), the GI50 in the assay with MOLT-4 leukemia was 0.56 µM; in the assay on OVCAR-8 ovarian, 1.59 µM; in the assay with SF-295 CNS it was 1.4 µM; in the assay on SK-MEL-2 melanoma, 0.54 µM; in the assay with SK-MEL-5 melanoma it was 1.47 µM; in the assay on SNB-75 CNS it was 0.57 µM. The figures for the GI50 in the assay on SR leukemia, with TK-10 renal and in the assay on U251 CNS were 0.515 µM, 1.26 µM and 1.39 µM, respectively. Moreover, the TGI in the assay on MOLT-4 leukemia was 3 µM; in the assay on OVCAR-8 ovarian, 3.47 µM; in the assay on SF-295 CNS it was 2.74 µM; in the assay on SK-MEL-2 melanoma it was 1.83 µM; with SK-MEL-5 melanoma, 3.26 µM; in the assay with SNB-75 CNS, 2.3 µM. Moreover, the TGI turned out to be 2.27 µM in the assay on SR leukemia, 2.56 µM in the assay on TK-10 renal and 2.72 µM in the assay on U251 CNS.

`O=C(CCCCC(=O)N/N=C\c1ccccc1O)N/N=C\c1ccccc1O`: the GI50 is 3.01 µM in the assay with MOLT-4 leukemia; 2.6 µM in the assay on OVCAR-8 ovarian; 1.98 µM in the assay with SF-295 CNS; 6.66 µM in the assay on SK-MEL-2 melanoma; 3.22 µM in the assay with SK-MEL-5 melanoma; 3.39 µM in the assay with SNB-75 CNS. The values for the GI50 in the assay with SR leukemia, in the assay with TK-10 renal and with U251 CNS were 2.84 µM, 6.4 µM and 3.09 µM, respectively. The TGI in the assay with MOLT-4 leukemia is greater than 100 µM; with OVCAR-8 ovarian, greater than 100 µM; in the assay on SF-295 CNS, 6.55 µM; in the assay on SK-MEL-2 melanoma, greater than 100 µM; with SK-MEL-5 melanoma, greater than 100 µM; in the assay with SNB-75 CNS, 20.5 µM. Also, the TGI with SR leukemia, in the assay with TK-10 renal and in the assay on U251 CNS was greater than 100 µM throughout.

As for `CCc1cccc(C)c1NC(=O)CC1C(=O)Nc2ccccc2S1(=O)=O` (stereo not given), the TGI in the assay on MOLT-4 leukemia was found to be 36 µM; with OVCAR-8 ovarian it was 54.1 µM; with SF-295 CNS, 82.1 µM; in the assay on SK-MEL-2 melanoma, 53.5 µM; in the assay with SK-MEL-5 melanoma, 44.4 µM; in the assay with SNB-75 CNS, 31.2 µM. Further, the TGI with SR leukemia was 23.8 µM; with TK-10 renal it was 59.4 µM; with U251 CNS, 32.5 µM.

Consider `NC(=S)NN=C1CSSC1`, for which the GI50 in the assay with MOLT-4 leukemia is 3.75 µM; with NCI/ADR-RES ovarian it was 4.11 µM; in the assay with OVCAR-8 ovarian, 2.94 µM; with SK-MEL-2 melanoma, 3.23 µM; with SK-MEL-5 melanoma, 1.3 µM; in the assay on SR leukemia, 2.79 µM. In addition, the GI50 is 2.73 µM in the assay with TK-10 renal and 3.66 µM in the assay on U251 CNS. Also, the TGI with MOLT-4 leukemia was 43 µM; in the assay with NCI/ADR-RES ovarian, greater than 100 µM; in the assay on OVCAR-8 ovarian, 23.4 µM; with SK-MEL-2 melanoma it was 18.9 µM; with SK-MEL-5 melanoma, 2.76 µM; with SR leukemia it was greater than 100 µM. Besides, the TGI was 7.62 µM in the assay with TK-10 renal and 23.1 µM with U251 CNS.

Turning to `COc1ccccc1C(=O)N(C)c1ccc(Cl)c(C(=O)OC(C)C)c1`, the TGI in the assay with MOLT-4 leukemia is greater than 100 µM; in the assay on NCI/ADR-RES ovarian, greater than 100 µM; in the assay with OVCAR-8 ovarian it was greater than 100 µM; with SF-295 CNS it was 94.5 µM; with SK-MEL-2 melanoma, greater than 100 µM; with SK-MEL-5 melanoma, 58.3 µM. Besides, the TGI in the assay with SNB-75 CNS, in the assay with TK-10 renal and in the assay with U251 CNS was greater than 100 µM in each case.

For `O=C(CC/C(CC(=O)c1ccc(Br)cc1)=N\O)Nc1ccc(Cl)c(Cl)c1`, the TGI in the assay on MOLT-4 leukemia, in the assay with OVCAR-8 ovarian, with SF-295 CNS, in the assay on SK-MEL-2 melanoma, in the assay with SK-MEL-5 melanoma and in the assay with SNB-75 CNS was greater than 100 µM throughout. Besides, the TGI in the assay with SR leukemia, in the assay on TK-10 renal and in the assay with U251 CNS was greater than 100 µM in each case.

Regarding `CN(C)CC/C(=N\Nc1ccc(Cl)cc1Cl)c1ccccc1`, the TGI in the assay on MOLT-4 leukemia was 42 µM; in the assay with OVCAR-8 ovarian it was 34.9 µM; in the assay on SF-295 CNS, 32.9 µM; with SK-MEL-2 melanoma it was 28.6 µM; in the assay with SK-MEL-5 melanoma, 27.9 µM; with SNB-75 CNS it was 20.9 µM. Also, the TGI with SR leukemia was found to be 32.3 µM; in the assay with TK-10 renal, 28.3 µM; with U251 CNS, 24.8 µM.
